Data on four molecules can be found in PMC12314892, “Macrocyclic Phage Display for Identification of Selective Protease Substrates” (Journal of the American Chemical Society, 2025).

“Also recorded” adds a separate entry of the source. *1 amine or outer side, *2 acyl side, *3 side chain or, on linkers, in order; H or OH if unused. Where a SMILES comes first, the peptide text is derived from it. Bridges are numbered along the chain shown (N, C = ends). The star is where a group is joined. X1 = NC(=O)Cc1cc(=O)oc2cc(NC(=O)[C@@H]3CCCN3C(=O)Cn3nc(C[*:1])cc3C[*:2])ccc12; X2 = NC(=O)Cc1cc(=O)oc2cc(NC(=O)[C@@H]3CCCN3C(=O)Cn3nc(C[*:2])cc3C[*:1])ccc12; AMC = Cc1cc(=O)oc2cc(N*)ccc12; Cbz = O=C(OCc1ccccc1)*

In assay [1] the test system is HEK293 Tet-Off cells with inducible FAPα expression. Nature of the assay: Live-cell substrate assay. In kind it is cell-based. The following applies: triplicate; for substrate cleavage in cells after inhibitor pre-treatment, in words: cells pre-treated 30 min at 37 °C with 1 μM UAMC-1100 (FAPα) or VbP (DPP4) before 200 μM substrate; for substrate cleavage in cells (mean slope RFU per minute), in words: HEK293 FAP+ vs doxycycline-suppressed FAP- cells, 1400 cells per well in PBS, 200 μM substrate, 37 °C, 90 min. The method, then:
(§1) 7.5. The following commercial substrates were used: zGP-AMC (Bachem,Catalog No.: […]
conducted in Greiner Bio-One black microplates of 384 wells and polystyrene F-bottom (Catalog No.: 784076). All compounds were dissolved in DMSO at a concentration of 10 mM and then diluted into the respective buffer to the desired final concentration. […]
ACC substrates. […]
HEK tet-off FAPα stable clonal cell line, received from the group of Jan Konvalinka, IOCB Prague, was cultured in IMDM medium with L-glutamine (Sigma-Aldrich, 51471C-1000ML), and supplemented with 10% […] and antibiotics – Geneticin G418 400 μg/ml (Roche, G418-RO) and Puromycin 0.5 μg/ml (Corning, MT61385RA) or Doxycycline 100 ng/ml (Sigma-Aldrich, D9891-1G). In general, cells were passaged at least two times after thawing before their use in cellular […]
assays. FAPα expression was suppressed with Doxycycline for at least a week prior to an […]
Live-cell substrate assay
Cells were grown to near confluency and harvested via trypsinization. After dissociation, extra media with serum was added to prevent further trypsinization. To collect the cells, those were centrifuged for 3 min at 500G and media removed. Cells were washed a total of three times with PBS and resuspended in PBS to 100 cells per μL. To perform the activity assay 14 μL of suspended cells in PBS (100 cell/μL) were plated in a black 384-well low volume “V” bottom plate (total of 1400 cells per well) and pre-treated with 2 μL of either vehicle or inhibitors (1 μM final concentration) for 30 min at 37 °C. DMSO was used as the vehicle. The inhibitors used were […]
DPP4 activity, respectively, in addition to other homologous proteases. After this time, 4 μL of the desired substrate was added to a final concentration of 200 μM and the fluorescence was recorded immediately. Fluorescence was measured using a Cytation 3 plate reader (BioTek). All experiments have at least three technical replicates. All assays were conducted at 37°C for 90 min, unless otherwise noted. Fluorescence measurements were performed at ex/em, 355/460 nm for ACC substrates. The substrates velocity was quantified by calculating the slope of the linear […]
3.2 Phage Display Methodology
The library and panning protocol was adapted from Ekanayake et. al.2 […]
The phage encoded library has the terminal sequence AACXXXXXXXCG. The complexity of the library is 1x109. In general a minimum of 5x1010 PFU were used for panning to have 50 copies of each sequence represented at the beginning of panning.
General reagents for phage display
15.5 g of 2X YT broth (1.6% tryptone, 1.0% yeast extract, 0.5% sodium chloride) 500mL of MilliQ water in a 2L flask, autoclaved.
YT media with 30 μg/mL final concentration of chloramphenicol (CA)
15.5 g of 2X YT broth (1.6% tryptone, 1.0% yeast extract, 0.5% sodium chloride) 500 mL of MilliQ water in a 2L flask, autoclaved. Let it cool to room temperature. Add 500 μL of 30 mg/mL chloramphenicol in ethanol.
Agar plates of YT media with chloramphenicol (30 μg/mL CA)
Weight out 31 g of 2X YT broth (1.6% tryptone, 1.0% yeast extract, 0.5% sodium chloride), 15 g of agar and add 1000 mL of MilliQ water. Autoclave. Let it cool down to approximately 55°C and add 1000 μL of 30 mg/mL CA in ethanol. Mix and pour into plates under sterile conditions.

The next assay concerns the target T1, Recombinant Human DPP9 (Homo sapiens, UniProt Q86TI2).
T1 construct: purchased R&D Systems 5419-SE-010
Nature of the assay: Kinetic evaluation of substrates. The following applies: for SI (selectivity index, coefficient of the proteases kcat/Km), FAPα vs DPP9: kcat/KM FAPα over kcat/KM DPP9. Format: biochemical. Here is the method: Fluorogenic Substrate Cleavage Assay
The following proteases were used for the activity assay: Recombinant Human FAPα Protein, CF (R&D Systems, Catalog No.: 3715-SE-010), Recombinant Human Prolyl Oligopeptidase/PREP Protein, CF (R&D Systems, Catalog No.: 4308-SE-010). Recombinant Human DPP9 Protein, CF (R&D Systems, Catalog No.: 5419-SE-010). Recombinant Human DPP4 Protein (Sino Biological, Catalog No.: 10688-HNCH-10). The buffers used for the activity assay were: FAPα - 50 mM Tris, 1 M NaCl, 1 mg/mL BSA, pH 7.5, PREP- 25 mM Tris, 250 mM NaCl, 2.5 mM DTT, pH 7.5 (DTT was freshly added immediately before use), DPP9- 25 mM Tris, pH 7.5, DPP4- 25 mM Tris, pH
as §1
conducted in Greiner Bio-One black microplates of 384 wells and polystyrene F-bottom (Catalog No.: 784076). All compounds were dissolved in DMSO at a concentration of 10 mM and then diluted into the respective buffer to the desired final concentration. The protease was added to the specified concentration before the fluorescence measurements. For fluorescence measurements, 2 μL of substrate was further diluted into 6 μL of buffer, followed by addition of 2 μL of enzyme in buffer. For no enzyme controls 2 μL of substrate was diluted into 8 μL of buffer.
The fluorescence was measured using a Cytation 3 plate reader (BioTek). All experiments have at least three technical replicates. All assays were conducted at 37°C for a minimum of 90 min, unless otherwise noted. Fluorescence measurements were performed at ex/em, 355/460 nm for ACC substrates. The substrates velocity was quantified by calculating the slope of the linear phase of the reaction as relative fluorescence units (RFU) per min.
Kinetic evaluation of substrates
To order to determine the kcat/KM, the previously indicated proteases were tested under their corresponding buffer conditions. Substrates were serially diluted in water, and 2 µL of each dilution was added to 6 µL of assay buffer in a 384-well plate. The plate was briefly centrifuged to ensure proper mixing and to eliminate air bubbles. Fluorescence measurements were initiated by adding 2 µL of the protease solution (prepared in activity buffer) to each well, yielding a final volume of 10 µL. Reactions were monitored at 37 °C for 60 minutes using a plate reader set to excitation/emission wavelengths of 355/460 nm. Control wells without enzyme contained 8 µL of assay buffer, instead of enzyme, and 2 µL of substrate. All measurements were performed in at least triplicate. The initial linear portion of each fluorescence progress curve was used to calculate initial reaction velocities (RFU/min). Calibration curves using free AMC were generated under the corresponding buffer and assay conditions to allow extrapolation of RFU values to µM concentrations. Michaelis-Menten kinetic parameters K M, kcat and kcat/,KM were determined using GraphPad Prism version 10.4.1. In some cases, KM, kcat or kcat/,KM values could not be reliably determined due to poor model fit. […]

Where [2] appears, read: 6 nM DPP9, 37 °C, 60 min, Michaelis-Menten fit, triplicates.

T1 sequence (Q86TI2 whole entry): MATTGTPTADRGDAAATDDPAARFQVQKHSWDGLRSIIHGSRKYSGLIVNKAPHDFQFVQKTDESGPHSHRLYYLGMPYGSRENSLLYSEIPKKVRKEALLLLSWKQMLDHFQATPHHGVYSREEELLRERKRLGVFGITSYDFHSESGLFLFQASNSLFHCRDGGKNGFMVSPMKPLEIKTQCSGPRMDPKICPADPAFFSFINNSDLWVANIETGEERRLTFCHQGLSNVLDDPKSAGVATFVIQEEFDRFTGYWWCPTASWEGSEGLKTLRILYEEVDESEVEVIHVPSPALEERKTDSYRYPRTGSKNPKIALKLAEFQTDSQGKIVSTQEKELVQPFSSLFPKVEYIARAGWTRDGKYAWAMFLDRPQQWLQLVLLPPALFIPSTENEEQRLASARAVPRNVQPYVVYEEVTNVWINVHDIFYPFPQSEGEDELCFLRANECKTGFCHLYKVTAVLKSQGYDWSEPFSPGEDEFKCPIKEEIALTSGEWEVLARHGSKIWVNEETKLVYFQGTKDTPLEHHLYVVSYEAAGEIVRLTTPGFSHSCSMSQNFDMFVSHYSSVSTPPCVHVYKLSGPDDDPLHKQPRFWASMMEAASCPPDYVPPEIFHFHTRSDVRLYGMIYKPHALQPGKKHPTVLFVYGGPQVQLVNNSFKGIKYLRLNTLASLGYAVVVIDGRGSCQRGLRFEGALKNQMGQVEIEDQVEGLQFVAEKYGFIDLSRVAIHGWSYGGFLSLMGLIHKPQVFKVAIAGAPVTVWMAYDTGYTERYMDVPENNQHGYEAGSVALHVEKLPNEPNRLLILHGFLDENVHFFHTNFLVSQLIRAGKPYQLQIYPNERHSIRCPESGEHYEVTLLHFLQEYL

For `Cc1cc(=O)oc2cc(NC(=O)[C@@H]3CCCN3C(=O)CNC(=O)OCc3ccccc3)ccc12` [zGP-AMC] (Cbz-Gly-Pro-{AMC}), the “substrate cleavage in cells after inhibitor pre-treatment, in words” value in assay [1] was “processed in the presence of both inhibitors; also recorded: produced signals in HEK cells even when target proteases were chemically inhibited”.

Turning to `CC(C)C[C@@H]1NC(=O)[C@H](CC(N)=O)NC(=O)[C@H](CCC(N)=O)NC(=O)[C@H](Cc2ccccc2)NC(=O)[C@H](CO)NC(=O)[C@H](C(C)C)NC(=O)[C@@H](N)CSCc2cc(nn2CC(=O)N2CCC[C@H]2C(=O)Nc2ccc3c(CC(N)=O)cc(=O)oc3c2)CSC[C@@H](C(=O)NCC(N)=O)NC(=O)[C@H](CC(=O)O)NC1=O` [FAP-33.2] (H-CVSFQNLDCG-NH2; linker 1-9 via X2; N-terminus assumed), in assay [1], the “substrate cleavage in cells (mean slope RFU per minute), in words” value is given as “no activity in cells”. The “SI (selectivity index, coefficient of the proteases kcat/Km), FAPα vs DPP9” value on Recombinant Human DPP9 is recorded as “FAPα >>>DPP9”.

For the molecule `CC(C)[C@@H]1NC(=O)[C@@H](N)CSCc2cc(n(CC(=O)N3CCC[C@H]3C(=O)Nc3ccc4c(CC(N)=O)cc(=O)oc4c3)n2)CSC[C@@H](C(=O)NCC(N)=O)NC(=O)[C@H](CC(=O)O)NC(=O)[C@H](C)NC(=O)[C@H](CC(N)=O)NC(=O)[C@H](CCC(N)=O)NC(=O)[C@H](Cc2ccccc2)NC(=O)[C@H](CO)NC1=O` [FAP-33.2A6] (H-CVSFQNADCG-NH2; linker 1-9 via X1; N-terminus assumed), in assay [1], the “substrate cleavage in cells (mean slope RFU per minute), in words” value is “selectively cleaved in FAP+ cells” and the “substrate cleavage in cells after inhibitor pre-treatment, in words” value is listed as “hydrolysis suppressed by the FAPα inhibitor UAMC1100 but not by the DPP4 inhibitor VbP”. Further, the “SI (selectivity index, coefficient of the proteases kcat/Km), FAPα vs DPP9” value on Recombinant Human DPP9 was “FAPα >>>DPP9”.

In general, Km refers to the concentration of substrate that gives half-maximal velocity. What is called kcat is the maximal rate divided by the concentration of active sites. Usually kcat/KM stands for the second-order rate constant that governs catalysis at low substrate concentration. In the case of `Cc1cc(=O)oc2cc(NC(=O)[C@@H]3CCCN3C(=O)CN)ccc12` [GP-AMC] (H-Gly-Pro-{AMC}), the “substrate cleavage in cells after inhibitor pre-treatment, in words” value in assay [1] is recorded as “produced signals in HEK cells even when target proteases were chemically inhibited”. Further, at Recombinant Human DPP9 (6 nM DPP9, 25 mM Tris, pH 7.5, 37 °C, 60 min, Michaelis-Menten fit, triplicates, ± SD), the Km was 61 ± 11 µM. On Recombinant Human DPP9 (setting [2]), the kcat was found to be 0.21 s⁻¹ and the kcat/KM came out at 3455 M⁻¹ s⁻¹. On Recombinant Human DPP9 (kcat/KM DPP4 over kcat/KM DPP9), the “SI (selectivity index, coefficient of the proteases kcat/Km), DPP4 vs DPP9” value was 110.
